# Laboratory results as given in patent EP4450494A1, “INDOLE DERIVATIVES AS HISTONE DEACETYLASE (HDAC) INHIBITORS FOR THE TREATMENT OF CANCER” (Consejo Superior De Investigaciones Científicas, priority 2023, dated 2024).
# Key:
# Format in all cases: cell-based
# [1] = tested on: U87 glioblastoma cell line; experiment: MTT cell viability dose-response assay in U87; conditions: MTT assay after 72 h of treatment
# Description: (§1) As a first screening, dose-response assays were done in U87 glioblastoma cell line in order to obtain the IC50 values of the different compounds. Cells were seeded at a density of 1.500 cells/well in 96-well plates, incubated overnight and treated with increasing concentrations of the corresponding compounds. After 72 h of treatment, cell viability was determined by MTT assay. For this, MTT was added to the wells and cells were incubated for 3,5 h at 37 °C and 5% CO2. Then, media was removed and DMSO was added to resuspend the formed crystals. Absorbance at 570 nm was measured using a spectrophotometer, and GraphPad Prism software was used to analyze the results and calculate the IC50 values.
# [2] = tested on: U251; experiment: MTT cell viability assay in U251; conditions: Homo sapiens, U-251, MTT assay after 72 h of treatment
# Description: as §1
# (§2) With this aim, additional MTT assays were carried out following the same protocol in other glioblastoma conventional (U251) and patient-derived (GNS179) cell lines. […]
# [3] = tested on: GNS179; experiment: MTT cell viability assay in GNS179; conditions: GNS179 (patient-derived); MTT assay after 72 h of treatment
# Description: as §1, §2
# [4] = molecular target: T1, HDAC6 (Homo sapiens, UniProt Q9UBN7); experiment: Western blot of HDAC6 and acetylated α-tubulin in treated U87 cells; conditions: 48 h, effect higher with increasing concentrations
# T1 construct: endogenous in cells; host or cells: U87 glioblastoma cell line
# T1 sequence (Q9UBN7 1-1215): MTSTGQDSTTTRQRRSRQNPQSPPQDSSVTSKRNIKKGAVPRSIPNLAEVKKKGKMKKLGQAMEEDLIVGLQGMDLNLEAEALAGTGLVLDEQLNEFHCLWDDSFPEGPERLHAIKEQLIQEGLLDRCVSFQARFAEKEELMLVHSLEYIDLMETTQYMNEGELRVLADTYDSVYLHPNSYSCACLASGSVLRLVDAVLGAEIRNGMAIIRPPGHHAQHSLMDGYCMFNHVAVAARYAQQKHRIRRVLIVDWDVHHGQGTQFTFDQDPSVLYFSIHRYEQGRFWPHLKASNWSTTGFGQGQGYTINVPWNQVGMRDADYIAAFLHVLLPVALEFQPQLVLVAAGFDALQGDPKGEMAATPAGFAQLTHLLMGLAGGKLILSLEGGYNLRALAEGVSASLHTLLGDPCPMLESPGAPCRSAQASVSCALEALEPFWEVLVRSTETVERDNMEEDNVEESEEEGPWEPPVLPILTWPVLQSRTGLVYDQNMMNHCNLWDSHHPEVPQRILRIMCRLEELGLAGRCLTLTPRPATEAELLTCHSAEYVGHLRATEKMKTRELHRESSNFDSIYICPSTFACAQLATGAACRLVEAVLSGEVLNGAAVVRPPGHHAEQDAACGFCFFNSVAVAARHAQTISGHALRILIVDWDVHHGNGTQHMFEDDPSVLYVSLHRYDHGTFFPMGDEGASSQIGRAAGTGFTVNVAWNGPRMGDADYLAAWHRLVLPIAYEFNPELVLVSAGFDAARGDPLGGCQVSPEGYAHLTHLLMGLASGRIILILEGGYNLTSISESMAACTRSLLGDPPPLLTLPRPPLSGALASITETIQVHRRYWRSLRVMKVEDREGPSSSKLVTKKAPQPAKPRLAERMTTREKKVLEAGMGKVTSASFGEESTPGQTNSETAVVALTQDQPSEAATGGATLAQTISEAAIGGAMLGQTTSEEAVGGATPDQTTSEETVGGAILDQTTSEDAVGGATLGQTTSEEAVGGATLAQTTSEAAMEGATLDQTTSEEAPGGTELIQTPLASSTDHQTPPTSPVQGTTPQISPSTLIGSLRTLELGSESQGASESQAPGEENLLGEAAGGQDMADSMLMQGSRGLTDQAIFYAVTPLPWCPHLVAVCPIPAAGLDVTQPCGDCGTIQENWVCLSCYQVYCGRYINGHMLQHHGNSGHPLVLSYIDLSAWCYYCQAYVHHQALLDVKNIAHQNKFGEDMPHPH
# Description: Basing on the IC50 values, DDI199, MTP142, MTP156, MTP150, FRB44 and FRB56 were selected for further studies, as they seem to be the most promising compounds (see figure 1). Thus, the capacity of these compounds as HDAC inhibitors was tested. […] For this, specific antibodies against HDAC6 and HDAC1, and acetylated α-tubulin and acetylated histone H3 were used, and β-actin was included as control. Secondary antibodies were horseradish peroxidase (HRP)-linked anti-rabbit and anti-mouse and detection was performed by chemiluminiscence with NOVEX ECL Chemi Substrate.
# [5] = tested on: conventional (U251) and patient-derived (GNS166 and GNS179) cell lines; experiment: Immunofluorescence for phosphohistone H3 (proliferation) in additional glioblastoma cell lines; conditions: dose-dependent
# Description: (§3) For this, U87 cells were incubated for 48 h with increasing concentrations of the compounds. After that, cells were incubated with phosphohistone H3 or caspase-3 antibodies for the study of proliferation or apoptosis, respectively. Alexa Fluor 555 IgG anti-mouse and anti-rabbit secondary antibodies were used, and nuclear DNA was stained with DAPI. Pictures were taken with an Eclipse 80i microscope.
# (§4) Furthermore, immunofluorescence assays for DDI199 were completed in additional conventional (U251) and patient-derived (GNS166 and GNS179) cell lines.
# [6] = tested on: conventional (U251) and patient-derived (GNS166 and GNS179) cell lines; experiment: Immunofluorescence for caspase-3 (apoptosis) in additional glioblastoma cell lines; conditions: dose-dependent
# Description: as §3, §4
SMILES,IC50 [1] [µM],IC50 [2] [µM],IC50 [3] [µM],HDAC6 inhibitory capacity [4],cell proliferation (PH3 positive cells) [5],apoptosis (caspase-3 positive cells) [6]
"C#CCN(Cc1cc2cc(OCCCN3CCCCC3)ccc2n1S(=O)(=O)c1ccccc1)C(=O)CCCCCCC(=O)NO [DDI199, N1-Hydroxy-N8-((1-(phenylsulfonyl)-5-(3-(piperidin-1-yl)propoxy)-1H-indol-2-yl)methyl)-N8-(prop-2-yn-1-yl)octanediamide]",3.23,5.45,4.33,high HDAC6 inhibitory capacity,significantly reduces cell proliferation,induces apoptosis
"COc1ccc2c(ccn2S(=O)(=O)c2cccc(/C=C/C(=O)NO)c2)c1 [MTP142, (E)-N-Hydroxy-3-(3-((5-methoxy-1H-indol-1-yl)sulfonyl)phenyl)acrylamide]",–,–,–,"inhibits HDAC6, although this effect is much slighter than that for DDI199",–,–
